Measured values from patent US10975068B2, “6-aminopyridin-3-yl thiazoles as modulators of RORγT” (Janssen Pharmaceutica NV, priority 2016, dated 2021).

Experiments:
full-length human RORγt = full-length human RORγt (Homo sapiens (Human), UniProt P51449); experiment: RORγt (full-length human) reporter assay, Conditions B or C; format: cell-based; details: Conditions B or C; for RORγt (FL) Reporter Assay B or C, % inhibition (value marked *): marked *: footnote not given; for IC50: read-out: RORγt (FL) Reporter Assay B or C, IC50
Sequence of full-length human RORγt (P51449 other isoform, or with tags, fused parts or gaps): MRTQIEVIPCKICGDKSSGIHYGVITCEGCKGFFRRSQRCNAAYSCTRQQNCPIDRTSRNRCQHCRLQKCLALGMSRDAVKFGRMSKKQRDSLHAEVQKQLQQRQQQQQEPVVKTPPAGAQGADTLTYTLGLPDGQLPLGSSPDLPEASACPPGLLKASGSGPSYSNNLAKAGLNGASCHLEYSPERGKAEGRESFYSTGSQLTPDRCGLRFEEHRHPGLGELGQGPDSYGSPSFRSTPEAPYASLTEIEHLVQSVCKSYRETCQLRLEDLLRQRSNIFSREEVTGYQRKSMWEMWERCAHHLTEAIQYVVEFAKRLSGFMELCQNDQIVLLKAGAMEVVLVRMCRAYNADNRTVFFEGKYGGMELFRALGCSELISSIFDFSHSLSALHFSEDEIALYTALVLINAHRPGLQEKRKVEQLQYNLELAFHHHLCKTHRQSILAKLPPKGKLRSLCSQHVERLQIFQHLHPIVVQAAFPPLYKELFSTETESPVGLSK
Summary of the method: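 HEK293T cells transiently co-transfected with GAL4-DBD–full-length human RORγt (nt 142-1635, NM_001001523.1) plus GAL4-firefly and CMV-Renilla luciferase reporters; compounds added 4-6 h post-transfection for 16-20 h in 1.3% FBS, 0.1% DMSO. Firefly signal normalized to DMSO and saturating reference compound, then to Renilla; IC50 from concentration plots.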

[1] = molecular target: human RORγt ligand binding domain (RORγt LBD) (Homo sapiens (Human), UniProt P51449); experiment: RORγt ThermoFluor® assay (thermal shift binding); details: read-out: ThermoFluor® Assay, Kd
Sequence of human RORγt ligand binding domain (RORγt LBD) (P51449 other isoform, or with tags, fused parts or gaps): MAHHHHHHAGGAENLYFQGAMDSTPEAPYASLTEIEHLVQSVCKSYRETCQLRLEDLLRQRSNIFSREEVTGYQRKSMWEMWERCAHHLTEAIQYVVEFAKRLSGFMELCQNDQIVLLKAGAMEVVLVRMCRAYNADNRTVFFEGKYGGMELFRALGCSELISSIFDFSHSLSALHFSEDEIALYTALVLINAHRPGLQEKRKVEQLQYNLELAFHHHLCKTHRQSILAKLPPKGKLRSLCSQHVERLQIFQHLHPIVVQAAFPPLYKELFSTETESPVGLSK
Summary of the method: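 His-tagged human RORγt LBD (0.065 mg/mL) with 60 μM 1,8-ANS in 100 mM Hepes pH 7.0, 10 mM NaCl, 2.5 mM GSH, 0.002% Tween-20 was heated at 1 °C/min.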

SMILES | RORγt (FL) Reporter Assay B or C, % inhibition (value marked *) (full-length human RORγt) | IC50 (full-length human RORγt) [nM] | Kd [1] [nM]
CC(C)(O)CNC(=O)c1nc(C(=O)N2C3CCC2CC3)c(-c2cnc(NC3CCCC3)cc2C(F)F)s1 [Example 46, 4-((1s,4s)-7-Azabicyclo[2.2.1]heptane-7-carbonyl)-5-(6-(cyclopentylamino)-4-(difluoromethyl)pyridin-3-yl)-N-(2-hydroxy-2-methylpropyl)thiazole-2-carboxamide] | 100* % | 29 | 4.2
CC(C)(O)CNC(=O)c1nc(C(=O)N2C3CCC2CC3)c(-c2cnc(NC3CCCC3)cc2C(F)(F)F)s1 [Example 53, 4-((1s,4s)-7-Azabicyclo[2.2.1]heptane-7-carbonyl)-5-(6-(cyclopentylamino)-4-(trifluoromethyl)pyridin-3-yl)-N-(2-hydroxy-2-methylpropyl)thiazole-2-carboxamide] | 109* % | 23 | 5.8
C[C@H]1CCCN1C(=O)c1nc(C(=O)NCC(C)(C)O)sc1-c1cnc(N[C@H](C)C(F)(F)F)cc1C(F)(F)F [Example 54, N-(2-Hydroxy-2-methylpropyl)-4-((S)-2-methylpyrrolidine-1-carbonyl)-5-(4-(trifluoromethyl)-6-(((R)-1,1,1-trifluoropropan-2-yl)amino)pyridin-3-yl)thiazole-2-carboxamide] | 109* % | 46 | 12
C[C@H](Nc1cc(C(F)F)c(-c2sc(C(=O)NCC(C)(C)O)nc2C(=O)N2C3CCC2CC3)cn1)C1CC1 [Example 55, 4-((1s,4s)-7-Azabicyclo[2.2.1]heptane-7-carbonyl)-5-(6-(((S)-1-cyclopropylethyl)amino)-4-(difluoromethyl)pyridin-3-yl)-N-(2-hydroxy-2-methylpropyl)thiazole-2-carboxamide] | 92* % | 31 | 7.9
C[C@H]1CCCN1C(=O)c1nc(C(=O)NCC(C)(C)O)sc1-c1cnc(NC(C)(C)C2CC2)cc1C(F)(F)F [Example 56, (S)-5-(6-((2-Cyclopropylpropan-2-yl)amino)-4-(trifluoromethyl)pyridin-3-yl)-N-(2-hydroxy-2-methylpropyl)-4-(2-methylpyrrolidine-1-carbonyl)thiazole-2-carboxamide] | 106* % | 3.6 | 0.34

Further lines, results first:

RORγt (FL) Reporter Assay B or C, % inhibition (value marked *) (full-length human RORγt) | IC50 (full-length human RORγt) [nM] | Kd [1] [nM] | SMILES
111* % | 23 | 11 | C[C@@H](Nc1cc(C(F)(F)F)c(-c2sc(C(=O)NCC(C)(C)O)nc2C(=O)N2CCC[C@@H]2C)cn1)C1CC1 [Example 48, 5-(6-(((R)-1-Cyclopropylethyl)amino)-4-(trifluoromethyl)pyridin-3-yl)-N-(2-hydroxy-2-methylpropyl)-4-((S)-2-methylpyrrolidine-1-carbonyl)thiazole-2-carboxamide]
99* % | 7.6 | 3.3 | C[C@H](Nc1cc(C(F)(F)F)c(-c2sc(C(=O)NCC3(O)CCC3)nc2C(=O)N2CCC[C@@H]2C)cn1)C1CC1 [Example 49, 5-(6-(((S)-1-Cyclopropylethyl)amino)-4-(trifluoromethyl)pyridin-3-yl)-N-((1-hydroxycyclobutyl)methyl)-4-((S)-2-methylpyrrolidine-1-carbonyl)thiazole-2-carboxamide]
100* % | 58 | 71 | C[C@@H](Nc1cc(C(F)F)c(-c2sc(C(=O)NCC(C)(C)O)nc2C(=O)N2CCC[C@@H]2C)cn1)C1CC1 [Example 50, 5-(6-(((R)-1-Cyclopropylethyl)amino)-4-(difluoromethyl)pyridin-3-yl)-N-(2-hydroxy-2-methylpropyl)-4-((S)-2-methylpyrrolidine-1-carbonyl)thiazole-2-carboxamide]
